Measurements from ChEMBL document CHEMBL3112471, “Synthesis and evaluation of anti-tubercular activity of 6-(4-substitutedpiperazin-1-yl) phenanthridine analogues” (Eur J Med Chem, 2014).
≈ marks a conversion by molar mass, not a printed value.

How the values were obtained:
[1] = test system: Mycobacterium tuberculosis; assay: Antitubercular activity against Mycobacterium tuberculosis H37Rv after 5 days by microplate Alamar Blue assay; type: functional; details: 120 h
[2] = test system: RAW264.7; assay: Cytotoxicity against mouse RAW264.7 cells after 72 hrs by MTT assay; type: cell-based; details: RAW264.7, 72 h
[3] = Cytotoxicity against mouse RAW264.7 cells at 50 uM after 72 hrs by MTT assay; type: cell-based; details: read-out: INH
[4] = Selectivity index, ratio of IC50 for mouse RAW264.7 cells to MIC for Mycobacterium tuberculosis H37Rv; type: toxicity; details: read-out: Selectivity Index

Row | Structure (SMILES) | MIC99 [1] [µg/mL] | also measured
1 | c1ccc(CCN2CCN(c3nc4ccccc4c4ccccc34)CC2)cc1 | 6.25 (≈ 17 µM) | –
2 | c1ccc(C(c2ccccc2)N2CCN(c3nc4ccccc4c4ccccc34)CC2)cc1 | 3.12 (≈ 7.27 µM) | –
3 | c1cnc(N2CCN(c3nc4ccccc4c4ccccc34)CC2)nc1 | 1.56 (≈ 4.57 µM) | IC50 [2]: > 40 µg/mL; cytotoxicity at 72 h, 50 µM [3]: 18.2%; selectivity ratio [4]: > 25
4 | c1ccc(N2CCN(c3nc4ccccc4c4ccccc34)CC2)nc1 | 1.56 (≈ 4.58 µM) | IC50 [2]: > 40 µg/mL; cytotoxicity at 72 h, 50 µM [3]: 16.4%; selectivity ratio [4]: > 25
5 | CCN1CCN(c2nc3ccccc3c3ccccc23)CC1 | 6.25 (≈ 21.4 µM) | –
6 | Oc1cccc(N2CCN(c3nc4ccccc4c4ccccc34)CC2)c1 | 3.12 (≈ 8.79 µM) | –
7 | O=C(O)c1cn(C2CC2)c2cc(N3CCN(C(=O)CN4CCN(c5nc6ccccc6c6ccccc56)CC4)CC3)c(F)cc2c1=O | 12.5 (≈ 19.7 µM) | –
8 | C=Cc1ccc(CN2CCN(c3nc4ccccc4c4ccccc34)CC2)cc1 | 25 (≈ 65.9 µM) | –
9 | C(=C\c1ccccc1)/CN1CCN(c2nc3ccccc3c3ccccc23)CC1 | 25 (≈ 65.9 µM) | –
10 | c1ccc2c(c1)nc(N1CCNCC1)c1ccccc12 | 25 (≈ 94.9 µM) | –
11 | Cc1cccc(N2CCN(c3nc4ccccc4c4ccccc34)CC2)c1 | 6.25 (≈ 17.7 µM) | –
12 | Clc1ccc(N2CCN(c3nc4ccccc4c4ccccc34)CC2)cc1 | 50 (≈ 134 µM) | –
13 | Clc1ccccc1N1CCN(c2nc3ccccc3c3ccccc23)CC1 | 6.25 (≈ 16.7 µM) | –
14 | O=[N+]([O-])c1ccc(N2CCN(c3nc4ccccc4c4ccccc34)CC2)cc1 | 1.56 (≈ 4.06 µM) | IC50 [2]: > 40 µg/mL; cytotoxicity at 72 h, 50 µM [3]: 21.4%; selectivity ratio [4]: > 25
15 | COc1cccc(N2CCN(c3nc4ccccc4c4ccccc34)CC2)c1 | 12.5 (≈ 33.8 µM) | –
16 | N#Cc1ccccc1N1CCN(c2nc3ccccc3c3ccccc23)CC1 | 50 (≈ 137 µM) | –
17 | COc1ccc2nc(C)cc(SCc3ccc(C(C)(C)C)cc3)c2c1 | – | MIC [1]: 0.01 µg/mL (≈ 0.0284 µM)
18 | CN1CCN(c2nc3ccccc3c3ccccc23)CC1 | 6.25 (≈ 22.5 µM) | –
19 | COc1ccc2cc(/C=N/Nc3ccnc4cc(OC)ccc34)ccc2c1 | – | MIC [1]: 0.22 µg/mL (≈ 0.616 µM)
20 | NNC(=O)c1ccncc1 [ISONIAZID] | 0.36 (≈ 2.63 µM) | –
21 | CO[C@H]1/C=C/O[C@@]2(C)Oc3c(C)c(O)c4c(O)c(c(/C=N/N5CCN(C)CC5)c(O)c4c3C2=O)NC(=O)/C(C)=C\C=C\[C@H](C)[C@H](O)[C@@H](C)[C@@H](O)[C@@H](C)[C@H](OC(C)=O)[C@@H]1C [RIFAMPIN] | 0.02 (≈ 0.0243 µM) | –
